Here are results for 5 molecules from patent US10617769B2, “Bacterium-contained hydrogel and method of making the same” (TCI Co., Ltd., priority 2016, dated 2020).

Experiment [1] has as its system USA300. To be noted: in vitro and in vivo; stated as known; cited from earlier work.
In experiment [2] the test system is S. epidermidis. Kind of experiment: Fermentation of PEG-monosaccharide polymers in solid agar medium with phenol red. It counts as cell-based, Staphylococcus epidermidis. To be noted: compound (+), S. epidermidis added to solid agar medium. As for the experimental part:
(§1) The experimental method is described as follows: compound A and compound B were respectively added to the solid agar media, and S. epidermidis or P. acnes were added to the media, then the bacteria were incubated, and then the color of phenol red in the media were recorded.

Experiment [3] concerns P. acnes. The experiment is described as above. It counts as cell-based, Propionibacterium acnes. To be noted: compound (+), P. acnes added to solid agar medium. As to the method:
as §1

Experiment [4] deals with USA300. Kind of experiment: Minimum bactericidal concentration (MBC) assay, anti-USA300 activity of SCFAs. The format is cell-based, Staphylococcus aureus. To be noted: USA300 10^6 CFU/mL, overnight incubation, tested 0.02 mM to 100 mM; for MBC: Staphylococcus aureus. As for the experimental part: Experimental method: USA 300 (10^6 CFU/m L) were respectively incubated with different concentrations of butyric acid or acetic acid on 96-well microtiter plates overnight; the testing concentrations of acetic acid and butyric acid were from 0.02 mM to 100 mM, each well was respectively added 100 microliters of acetic acid or butyric acid with different concentrations. In the control groups, only PBS was added to the wells. After incubation, the USA300 was diluted 1:10^0 to 1:10^5 with PBS, 5 μl of the dilution was spread to the agar plate; after overnight incubation, colonies (CFU) on the algal plate were counted. MBC is defined as the degree of sterilization at 99.9% (greater than […] colony/mL).
Referring to FIG. 4A through FIG. 4D. FIG. 4A and FIG. 4C show the images of bacterial growth on culture plates. […] UD means undetectable.

Converted amounts (≈) assume the structure as drawn.

Take `CCC(=O)O` [propionic acid]: the “Growth of USA300” value in experiment [1] was “suppress the growth of USA300”.
For `C#CCOCCOCCOCCOCCOC1OC(COC(C)=O)C(OC(C)=O)C(OC(C)=O)C1OC(C)=O` [Compound B, PEG5-tetra-Ac-beta-D-glucose], the “Color of phenol red in the medium” value is given as “Yellow” in experiment [2] and “Red” in experiment [3].
On the same counts, the results for `C#CCOCCOCCOCCOCCOC1OC(CO)C(O)C(O)C1O` [Compound A, propargyl-PEG5-beta-D-glucose] are “Yellow” and “Red”.
`CCCC(=O)O` [butyric acid]: in experiment [4], the MBC worked out at 10 mM (≈ 881 µg/mL) and the “Concentration for complete inhibition” value stood at 50 mM.
Consider `CC(=O)O` [acetic acid], for which, in experiment [4], the MBC amounted to 10 mM (≈ 601 µg/mL) and the “Concentration for complete inhibition” value is 50 mM.

Usually MBC stands for the smallest concentration meeting the test's criterion for killing. Read a high MBC as weaker bactericidal potency.
